In ChEMBL document CHEMBL5038631, “2-(2-Hydroxyethyl)piperazine derivatives as potent human carbonic anhydrase inhibitors: Synthesis, enzyme inhibition, computational studies and antiglaucoma activity” (Eur J Med Chem, 2022):

Molecular target: Carbonic anhydrase 9 (Homo sapiens, UniProt Q16790)
Assay: Inhibition of human CA9 incubated for 15 mins prior to testing by phenol red dye based stopped flow CO2 hydration assay

NS(=O)(=O)c1ccc(C(=O)N2CCN(Cc3ccccc3)[C@H](CCO)C2)cc1
Ki: 59.9 nM

NS(=O)(=O)c1ccc(C(=O)N2CCNC(CCO)C2)cc1 (racemic)
Ki: 34.4 nM

NS(=O)(=O)c1ccc(C(=O)N2CCNC[C@@H]2CCO)cc1
Ki: 51.9 nM

CN1CCN(C(=O)c2ccc(S(N)(=O)=O)cc2)C[C@H]1CCO
Ki: 6.8 nM

NS(=O)(=O)c1ccc(C(=O)N2CCN(Cc3ccccc3)C[C@@H]2CCO)cc1
Ki: 14.7 nM

CN1CCN(C(=O)c2ccc(S(N)(=O)=O)cc2)[C@@H](CCO)C1
Ki: 31.2 nM

NS(=O)(=O)c1ccc(C(=O)N2CCN(Cc3ccccc3)C[C@H]2CCO)cc1
Ki: 35.2 nM

NS(=O)(=O)c1ccc(C(=O)N2CCN[C@H](CCO)C2)cc1
Ki: 53.3 nM

CN1CCN(C(=O)c2ccc(S(N)(=O)=O)cc2)[C@H](CCO)C1
Ki: 24.9 nM

NS(=O)(=O)c1ccc(C(=O)N2CCN(Cc3ccccc3)C(CCO)C2)cc1 (racemic)
Ki: 28.8 nM

CN1CCN(C(=O)c2ccc(S(N)(=O)=O)cc2)CC1CCO (racemic)
Ki: 6.8 nM

NS(=O)(=O)c1ccc(C(=O)N2CCNC[C@H]2CCO)cc1
Ki: 60.5 nM
